Earlier results on 33 substances are cited in US20100183720A1, “Hetero-assembled hydrogels” (The Board of Trustees of the Leland Stanford Junior …, priority 2008, published 2010).

T6 sequence (P11940 542-619 limits assumed): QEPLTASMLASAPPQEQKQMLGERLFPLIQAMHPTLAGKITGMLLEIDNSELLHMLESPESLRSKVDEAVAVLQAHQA
T1 sequence (P27986 3-79 limits assumed): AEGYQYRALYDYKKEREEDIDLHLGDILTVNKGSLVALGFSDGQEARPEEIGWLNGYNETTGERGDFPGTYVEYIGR

The target of one data set is model group I polyproline peptide. Conditions: monomeric units of WW domain bound to model group I polyproline peptide; read-out: apparent dissociation constant.
For the substance “Nedd4.3: wild-type WW domain sequence (Protein Data Bank 1I5H), monomeric unit (PLPPGWEERTHTDGRVFFINHNIKKTQWEDPRMQ; Natural WW domain also called Nedd4.3 Kanelis, V., Rotin D. & Forman-Kay, JD (2001) Solution structure of a Nedd4 WW domain-ENaC peptide complex, Nat Struct Biol 8 407-12.)”, the Kd is 11.2 ± 1.2 µM.

The next data set has as its target T1, SH3 Domain (Homo sapiens, UniProt P27986).
T1 construct: SH3 Domain
The settings on record: read-out: Dissociation constant, Kd.
For the substance RKLPARPSK, the Kd is 16.5 ± 0.1 µM.
On to RPLPPRPSK, for which the Kd was 9.1 ± 0.6 µM.
Regarding RKAPPRPSK, the Kd is 37 ± 1 µM.
Turning to RKLPPRASK, the Kd is 53 ± 6 µM.
Consider RKLAPRPSK, for which the Kd was 140 ± 10 µM.
Consider RALPPRPSK, for which the Kd is 9.7 ± 0.2 µM.
Take RKLPPRPSK: the Kd was 9.1 ± 0.6 µM.
Turning to RKLPPRP, the Kd was 12.8 ± 0.6 µM.
As to AKLPPRPSK, the Kd is 98 ± 0.2 µM.
Regarding RKLPPAPSK, the Kd is 29 ± 2 µM.

In another data set the target is T2, Human YAP65 (Yes kinase-associated protein) WW Domain (Homo sapiens, UniProt P46937).
T2 construct: WW Domain
T2 sequence (P46937 171-204 limits assumed): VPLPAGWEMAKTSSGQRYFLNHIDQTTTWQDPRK
Conditions: read-out: Dissociation constant, Kd (Binding constant).
In the case of SPPPPFTV, the Kd is 118 ± 17 µM.
In the case of SAPPPYTV, the Kd was 53 ± 17 µM.
For the substance SPPPAYTV, the Kd is 63 ± 17 µM.
Consider GTPPPPYTVG, for which the Kd is 52 ± 6 µM.
Consider SPPPYTV, for which the Kd was 47 ± 6 µM.

The target of another data set is T3, SH3 Domain PI3K (1 SH3 and 2 SH2) (Homo sapiens, UniProt P27986).
T3 construct: SH3 Domain
T3 sequence (P27986 3-79 limits assumed): as the sequence (P27986 3-79 limits assumed) above
The settings on record: read-out: Dissociation constant, Kd.
In the case of LNKPPLPKR, the Kd was 13 µM.
As to RKLPPRPSK, the Kd is 9.1 µM.
In the case of RKLPPRPAF, the Kd is 11 µM.
Turning to RALPPLPRY, the Kd is 17 µM.
Consider RYLPPRPMY, for which the Kd is 13 µM.

The next data set deals with T4, SH3 Domain cSRC (1 SH3 and 1 SH2) (Gallus gallus, UniProt P00523).
T4 construct: SH3 Domain
The settings on record: read-out: Dissociation constant, Kd.
Take PYHPPLPRR: the Kd was 13 µM.
Take RELPPIPVF: the Kd is 9.6 µM.
Regarding RELPPLPRF, the Kd is 7.8 µM.
On to RKLPPRPSK, for which the Kd was 73 µM.
Turning to RPLPPTPKY, the Kd is 12 µM.

The next data set addresses T5, Human Tsg101 UEV domain (Homo sapiens, UniProt Q99816).
T5 construct: Human Tsg101 UEV domain
T5 sequence (Q99816 2-145 limits assumed): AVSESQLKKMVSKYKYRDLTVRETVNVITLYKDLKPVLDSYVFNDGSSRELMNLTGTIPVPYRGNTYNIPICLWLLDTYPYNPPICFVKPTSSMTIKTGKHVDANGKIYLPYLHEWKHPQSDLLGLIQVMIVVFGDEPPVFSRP
Conditions: read-out: Dissociation constant, Kd (Binding constant).
Take “HIV-1 p6 protein: binding partner of Human Tsg101 UEV domain (LQSRPEPTAPPEESFRSGVETTTPPQKQEPIDKELYPLTSLRSLFGNDPSSQ; p6-gag; UniProt P04591 449-500, looked up)”: the Kd is 27 ± 5 µM.

The next data set addresses T6, PABC Domain (Homo sapiens, UniProt P11940).
T6 construct: PABC Domain
Conditions: SPR; read-out: Dissociation constant, Kd (SPR Kd).
AKPFVPNVHAAEFVPSFLR: the Kd was 3.1 µM.
Regarding LVVKSNLPNAKEFVP, the Kd was 3 µM.
AFSRQLNVNAKPFVPNVHAAEFVPSFLR: the Kd is 1.3 µM.
VVKSNLNPNAKEFVPGVKYGNI: the Kd was 0.16 µM.
With AFSRQLNVNAKPFVPNVHA, the Kd was 3.9 µM.
With VLMSKLSVNAPEFYPSGYSSSY, the Kd is 2.3 µM.
As to SNLNPNAKEFVPGVKYG, the Kd was 0.19 µM.
Take LVVKSNLNPNAKEF: the Kd was 260 µM.
